Like-named read-outs stand apart in the source and are kept apart here.
What was measured:
RET tyrosine kinase = RET tyrosine kinase (Homo sapiens (Human), UniProt P07949); test: Assay of small molecular compounds for inhibiting the activity of RET kinase (LANCE TR-FRET)
Procedure: (§1) The assay is based on the LANCE TR-FRET technology of Perkin Elmer Inc., and the assay method is as follows:
(§2) 2.5 μL of the gradient-diluted compounds were taken with a transfer pipette to a 384-well plate.
Addition of enzyme: 5 μL of 2× RET kinase solution (concentration was 0.8 nM) was taken with a transfer pipette to the corresponding reaction well of the 384-well plate, mixed well and pre-reacted at room temperature for 30 minutes.
2.5 μL 4× Ultra ULight™-JAK-1 (Tyr1023) Peptide (concentration was 200 nM)/ATP (concentration was 40 μM) mixture was taken with a transfer pipette to the corresponding reaction well of the 384-well plate.
(§3) The final concentration of DMSO in the reaction system was 4%.
(§4) The mixture was mixed well and then centrifuged and reacted at room temperature in dark for 60 min.
(§5) The 384-well plate was placed into the Envision plate reader and the signal was detected using the appropriate program.

VEGFR2 tyrosine kinase = VEGFR2 tyrosine kinase (Homo sapiens (Human), UniProt P35968); test: Assay of small molecular compounds for inhibiting the activity of VEGFR-2 kinase (LANCE TR-FRET)
Chain of VEGFR2 tyrosine kinase (P35968 20-1356): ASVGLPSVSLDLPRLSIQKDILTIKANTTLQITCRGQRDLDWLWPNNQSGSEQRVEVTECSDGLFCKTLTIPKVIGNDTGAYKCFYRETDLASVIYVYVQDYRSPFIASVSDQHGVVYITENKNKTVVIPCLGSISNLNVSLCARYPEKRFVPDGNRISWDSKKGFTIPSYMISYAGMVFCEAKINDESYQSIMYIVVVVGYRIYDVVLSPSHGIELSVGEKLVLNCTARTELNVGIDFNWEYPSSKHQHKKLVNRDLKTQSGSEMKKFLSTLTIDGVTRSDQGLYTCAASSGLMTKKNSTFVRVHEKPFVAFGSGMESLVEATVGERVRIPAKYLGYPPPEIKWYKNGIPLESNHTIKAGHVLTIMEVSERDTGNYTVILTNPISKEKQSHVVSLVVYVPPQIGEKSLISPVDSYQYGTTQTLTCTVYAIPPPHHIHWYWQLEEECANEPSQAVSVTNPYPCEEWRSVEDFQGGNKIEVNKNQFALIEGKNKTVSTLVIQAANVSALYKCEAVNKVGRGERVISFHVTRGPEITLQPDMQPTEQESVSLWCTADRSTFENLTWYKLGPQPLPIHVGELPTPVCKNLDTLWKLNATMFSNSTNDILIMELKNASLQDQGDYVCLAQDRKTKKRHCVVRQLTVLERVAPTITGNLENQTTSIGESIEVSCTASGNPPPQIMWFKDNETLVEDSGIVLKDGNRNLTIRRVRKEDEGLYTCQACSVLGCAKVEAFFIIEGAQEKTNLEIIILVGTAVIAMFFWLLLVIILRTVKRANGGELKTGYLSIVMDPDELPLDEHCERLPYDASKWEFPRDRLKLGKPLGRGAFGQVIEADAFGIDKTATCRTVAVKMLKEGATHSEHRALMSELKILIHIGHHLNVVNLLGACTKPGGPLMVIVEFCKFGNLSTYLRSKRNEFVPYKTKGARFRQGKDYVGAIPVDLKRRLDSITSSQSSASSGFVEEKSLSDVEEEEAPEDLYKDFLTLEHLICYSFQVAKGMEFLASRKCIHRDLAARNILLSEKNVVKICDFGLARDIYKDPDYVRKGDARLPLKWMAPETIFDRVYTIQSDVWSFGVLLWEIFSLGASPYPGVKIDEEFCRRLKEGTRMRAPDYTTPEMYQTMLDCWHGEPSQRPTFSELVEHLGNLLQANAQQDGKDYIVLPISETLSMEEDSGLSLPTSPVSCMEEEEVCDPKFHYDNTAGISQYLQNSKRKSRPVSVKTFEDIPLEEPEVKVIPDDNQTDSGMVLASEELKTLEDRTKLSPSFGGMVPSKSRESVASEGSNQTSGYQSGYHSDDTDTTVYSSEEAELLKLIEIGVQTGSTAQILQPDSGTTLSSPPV
Procedure: as §1, §2
Addition of enzyme: 5 μL of 2× VEGFR2 kinase solution (concentration was 0.5 nM) was taken with a transfer pipette to the corresponding reaction well of the 384-well plate, mixed well and pre-reacted at room temperature for 30 minutes.
2.5 μL 4× Ultra ULight™-JAK-1 (Tyr1023) Peptide (concentration was 200 nM)/ATP (concentration was 40 μMM) mixture was taken with a transfer pipette to the corresponding reaction well of the 384-well plate.
Negative control: 2.5 μL/well 4× substrate/ATP mixture and 7.5 μL 1× Kinase Assay Buffer were added to the wells of the 384-well plate.
as §3, §4, §5

Chain of RET tyrosine kinase (P07949 29-1114): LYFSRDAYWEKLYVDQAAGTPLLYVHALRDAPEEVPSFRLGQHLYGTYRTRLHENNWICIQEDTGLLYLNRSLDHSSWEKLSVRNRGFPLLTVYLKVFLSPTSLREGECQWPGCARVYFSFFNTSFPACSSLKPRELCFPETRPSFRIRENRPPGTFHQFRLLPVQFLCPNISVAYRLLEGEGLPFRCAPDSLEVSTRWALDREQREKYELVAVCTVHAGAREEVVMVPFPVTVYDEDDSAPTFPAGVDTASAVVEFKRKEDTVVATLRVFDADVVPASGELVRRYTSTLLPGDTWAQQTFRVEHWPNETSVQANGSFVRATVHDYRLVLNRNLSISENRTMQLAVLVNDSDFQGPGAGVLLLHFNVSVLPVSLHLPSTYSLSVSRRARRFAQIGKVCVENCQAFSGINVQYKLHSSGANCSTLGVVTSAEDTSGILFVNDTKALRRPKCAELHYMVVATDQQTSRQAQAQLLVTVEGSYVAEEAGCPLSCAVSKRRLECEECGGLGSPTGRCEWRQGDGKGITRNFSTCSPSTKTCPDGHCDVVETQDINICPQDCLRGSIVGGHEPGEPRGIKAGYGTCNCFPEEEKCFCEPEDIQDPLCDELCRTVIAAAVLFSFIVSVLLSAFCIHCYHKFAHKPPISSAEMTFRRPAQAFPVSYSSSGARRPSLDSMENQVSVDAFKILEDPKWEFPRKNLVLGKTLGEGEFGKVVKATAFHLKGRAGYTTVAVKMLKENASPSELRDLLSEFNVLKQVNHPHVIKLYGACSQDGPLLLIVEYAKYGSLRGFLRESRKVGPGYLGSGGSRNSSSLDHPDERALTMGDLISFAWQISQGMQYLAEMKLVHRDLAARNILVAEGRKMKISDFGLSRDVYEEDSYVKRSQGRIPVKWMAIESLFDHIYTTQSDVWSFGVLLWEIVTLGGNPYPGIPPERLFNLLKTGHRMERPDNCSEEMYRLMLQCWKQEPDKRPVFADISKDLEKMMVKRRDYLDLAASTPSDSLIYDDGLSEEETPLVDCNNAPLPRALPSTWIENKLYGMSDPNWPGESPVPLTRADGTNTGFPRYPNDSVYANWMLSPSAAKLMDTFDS

SMILES | IC50 (RET tyrosine kinase; read-out: RET IC50) [nM] | IC50 (VEGFR2 tyrosine kinase; read-out: VEGFR-2 IC50) [nM] | IC50 (RET tyrosine kinase) [nM] | IC50 (VEGFR2 tyrosine kinase) [nM]
CC1(N)CCN(CCCOc2cc3nccc(Oc4ccc(NC(=O)NC5CC5)c(Cl)c4)c3c3c2OCCO3)CC1 [Example 61, 1-(4-((5-(3-(4-amino-4-methylpiperidin-1-yl)propoxy)-2,3-dihydro-[1,4]dioxino[2,3-f]quinolin-10-yl)oxy)-2-chlorophenyl)-3-cyclopropylurea] | < 50 | < 50 |  | 
O=C(Nc1ccc(Oc2ccnc3cc(OCC4CC4)c4c(c23)OCCO4)cc1Cl)NC1CC1 [Example 46, 1-(2-chloro-4-((5-(cyclopropylmethoxy)-2,3-dihydro-[1,4]dioxino[2,3-f]quinolin-10-yl)oxy)phenyl)-3-cyclopropylurea] | < 50 | < 50 |  | 
O=C(Nc1ccc(Oc2ccnc3cc(OCCO)c4c(c23)OCCO4)cc1)Nc1ccc(Cl)c(C(F)(F)F)c1 [Example 14, 1-(4-chloro-3-(trifluoromethyl)phenyl)-3-(4-((5-(2-hydroxyethoxy)-2,3-dihydro-[1,4]dioxino[2,3-f]quinolin-10-yl)oxy)phenyl)urea] | < 50 | < 50 |  | 
CCOc1cc2nccc(Oc3ccc(NC(=O)NC4CC4)c(F)c3)c2c2c1OCCO2 [Example 90, 1-cyclopropyl-3-(4-((5-ethoxy-2,3-dihydro-[1,4]dioxino[2,3-f]quinolin-10-yl)oxy)-2-fluorophenyl)urea] | < 50 | < 50 |  | 
CCNC(=O)Nc1ccc(Oc2ccnc3cc(OC)c4c(c23)OCCO4)cc1Cl [Example 80, 1-(2-chloro-4-((5-methoxy-2,3-dihydro-[1,4]dioxino[2,3-f]quinolin-10-yl)oxy)phenyl)-3-ethylurea] | < 50 | < 50 |  | 
O=C(Nc1ccc(Oc2ccnc3cc(OCCCN4CCCCC4)c4c(c23)OCCO4)cc1Cl)NC1CC1 [Example 54, 1-(2-chloro-4-((5-(3-(piperidin-1-yl)propoxy)-2,3-dihydro-[1,4]dioxino[2,3-f]quinolin-10-yl)oxy)phenyl)-3-cyclopropylurea] | < 50 | < 50 |  | 
CC1(N)CCN(CCCOc2cc3nccc(Oc4ccc(NC(=O)Nc5ccc(Cl)c(C(F)(F)F)c5)cc4)c3c3c2OCCO3)CC1 [Example 26, 1-(4-((5-(3-(4-amino-4-methylpiperidin-1-yl)propoxy)-2,3-dihydro-[1,4]dioxino[2,3-f]quinolin-10-yl)oxy)phenyl)-3-(4-chloro-3-(trifluoromethyl)phenyl)urea] | < 50 | < 50 |  | 
COc1cc2nccc(Oc3ccc(NC(=O)NC4CC4)c(Cl)c3)c2c2c1OCCO2 [Example 7, 1-(2-chloro-4-((5-methoxy-2,3-dihydro-[1,4]dioxino[2,3-f]quinolin-10-yl)oxy)phenyl)-3-cyclopropylurea] |  |  | < 50 | < 50
COCCCOc1cc2nccc(Oc3ccc(NC(=O)NC4CCC4)c(Cl)c3)c2c2c1OCCO2 [Example 72, 1-(2-chloro-4-((5-(3-methoxypropoxy)-2,3-dihydro-[1,4]dioxino[2,3-f]quinolin-10-yl)oxy)phenyl)-3-cyclobutylurea] | < 50 | < 50 |  | 
CC1(C)CCN(CCCOc2cc3nccc(Oc4ccc(NC(=O)NC5CC5)c(Cl)c4)c3c3c2OCCO3)CC1 [Example 59, 1-(2-chloro-4-((5-(3-(4,4-dimethylpiperidin-1-yl)propoxy)-2,3-dihydro-[1,4]dioxino[2,3-f]quinolin-10-yl)oxy)phenyl)-3-cyclopropylurea] | < 50 | < 50 |  | 
COCCOc1cc2nccc(Oc3ccc(NC(=O)NC4CC4)c(Cl)c3)c2c2c1OCCO2 [Example 49, 1-(2-chloro-4-((5-(2-methoxyethoxy)-2,3-dihydro-[1,4]dioxino[2,3-f]quinolin-10-yl)oxy)phenyl)-3-cyclopropylurea] | < 50 | < 50 |  | 
O=C(Nc1ccc(Oc2ccnc3cc(OC4CCOC4)c4c(c23)OCCO4)cc1Cl)NC1CC1 (stereo not shown) [Example 66, 1-(2-chloro-4-((5-((tetrahydrofuran-3-yl)oxy)-2,3-dihydro-[1,4]dioxino[2,3-f]quinolin-10-yl)oxy)phenyl)-3-cyclopropylurea] | < 50 | < 50 |  | 
O=C(Nc1ccc(Oc2ccnc3cc(OCCCN4CCS(=O)(=O)CC4)c4c(c23)OCCO4)cc1Cl)NC1CC1 [Example 58, 1-(2-chloro-4-((5-(3-(1,1-dioxothiomorpholino)propoxy)-2,3-dihydro-[1,4]dioxino[2,3-f]quinolin-10-yl)oxy)phenyl)-3-cyclopropylurea] | < 50 | < 50 |  | 
COc1cc2nccc(Oc3ccc(NC(=O)Nc4ccc(Cl)c(C(F)(F)F)c4)cc3F)c2c2c1OCCO2 [Example 5, 1-(4-chloro-3-(trifluoromethyl)phenyl)-3-(3-fluoro-4-((5-methoxy-2,3-dihydro-[1,4]dioxino[2,3-f]quinolin-10-yl)oxy)phenyl)urea] | < 50 | 50 to 500 |  | 
CC(C)NC(=O)Nc1ccc(Oc2ccnc3cc(OCCCN4CCOCC4)c4c(c23)OCCO4)cc1Cl [Example 88, 1-(2-chloro-4-((5-(3-morpholinopropoxy)-2,3-dihydro-[1,4]dioxino[2,3-f]quinolin-10-yl)oxy)phenyl)-3-isopropylurea] | < 50 | < 50 |  | 
CN(C)CCCOc1cc2nccc(Oc3ccc(NC(=O)Nc4ccc(Cl)c(C(F)(F)F)c4)cc3)c2c2c1OCCO2 [Example 17, 1-(4-chloro-3-(trifluoromethyl)phenyl)-3-(4-((5-(3-(dimethylamino)propoxy)-2,3-dihydro-[1, 4]dioxino[2,3-f]quinolin-10-yl)oxy)phenyl)urea] | < 50 | < 50 |  | 
CCCNC(=O)Nc1ccc(Oc2ccnc3cc(OC)c4c(c23)OCCO4)cc1Cl [Example 81, 1-(2-chloro-4-((5-methoxy-2,3-dihydro-[1,4]dioxino[2,3-f]quinolin-10-yl)oxy)phenyl)-3-propylurea] | < 50 | < 50 |  | 
N#CCOc1cc2nccc(Oc3ccc(NC(=O)NC4CC4)c(Cl)c3)c2c2c1OCCO2 [Example 47, 1-(2-chloro-4-((5-(cyanomethoxy)-2,3-dihydro-[1,4]dioxino[2,3-f]quinolin-10-yl)oxy)phenyl)-3-cyclopropylurea] | < 50 | < 50 |  | 
CNC(=O)Nc1ccc(Oc2ccnc3cc(OCCCN4CCOCC4)c4c(c23)OCCO4)cc1Cl [Example 85, 1-(2-chloro-4-((5-(3-morpholinopropoxy)-2,3-dihydro-[1,4]dioxino[2,3-f]quinolin-10-yl)oxy)phenyl)-3-methylurea] |  |  | < 50 | < 50
CN(C)CCCCCCOc1cc2nccc(Oc3ccc(NC(=O)NC4CC4)c(Cl)c3)c2c2c1OCCO2 [Example 64, 1-(2-chloro-4-((5-((6-(dimethylamino)hexyl)oxy)-2,3-dihydro-[1,4]dioxino[2,3-f]quinolin-10-yl)oxy)phenyl)-3-cyclopropylurea] | < 50 | < 50 |  | 
CCNC(=O)Nc1ccc(Oc2ccnc3cc(OCCCN4CCOCC4)c4c(c23)OCCO4)cc1Cl [Example 86, 1-(2-chloro-4-((5-(3-morpholinopropoxy)-2,3-dihydro-[1,4]dioxino[2,3-f]quinolin-10-yl)oxy)phenyl)-3-ethylurea] |  |  | < 50 | < 50
O=C(Nc1ccc(Oc2ccnc3cc(OCCCN4CCOCC4)c4c(c23)OCCO4)cc1)Nc1ccc(F)cc1F [Example 78, 1-(2,4-difluorophenyl)-3-(4-((5-(3-morpholinopropoxy)-2,3-dihydro-[1,4]dioxino[2,3-f]quinolin-10-yl)oxy)phenyl)urea] | < 50 | < 50 |  | 
O=C(Nc1ccc(Oc2ccnc3cc(OCCCN4CCOCC4)c4c(c23)OCCO4)cc1Cl)NC1CCC1 [Example 74, 1-(2-chloro-4-((5-(3-morpholinopropoxy)-2,3-dihydro-[1,4]dioxino[2,3-f]quinolin-10-yl)oxy)phenyl)-3-cyclobutylurea] | < 50 | < 50 |  | 
CC1(O)CCN(CCCOc2cc3nccc(Oc4ccc(NC(=O)NC5CC5)c(Cl)c4)c3c3c2OCCO3)CC1 [Example 60, 1-(2-chloro-4-((5-(3-(4-hydroxy-4-methylpiperidin-1-yl)propoxy)-2,3-dihydro-[1,4]dioxino[2,3-f]quinolin-10-yl)oxy)phenyl)-3-cyclopropylurea] | < 50 | < 50 |  | 
CN1CCN(CCCOc2cc3nccc(Oc4ccc(NC(=O)NC5CC5)c(Cl)c4)c3c3c2OCCO3)CC1 [Example 56, 1-(2-chloro-4-((5-(3-(4-methylpiperazin-1-yl)propoxy)-2,3-dihydro-[1,4]dioxino[2,3-f]quinolin-10-yl)oxy)phenyl)-3-cyclopropylurea] | < 50 | < 50 |  | 
COCCN(C)CCCOc1cc2nccc(Oc3ccc(NC(=O)NC4CC4)c(Cl)c3)c2c2c1OCCO2 [Example 62, 1-(2-chloro-4-((5-(3-((2-methoxyethyl)(methyl)amino)propoxy)-2,3-dihydro-[1,4]dioxino[2,3-f]quinolin-10-yl)oxy)phenyl)-3-cyclopropylurea] | < 50 | < 50 |  | 

Reference: patent US11479559B2, “Urea-substituted aromatic ring-linked dioxinoquinoline compounds, preparation method and uses thereof” (BEIJING SCITECH-MQ PHARMACEUTICALS LIMITED, priority 2018, dated 2022)
